From BindingDB's records for doi:10.7270/Q2W957K6 (Pcmd, 2008)

Each compound was assayed against Coagulation factor XI (Homo sapiens, UniProt P03951) (assay: human FXIa inhibitor potency, dose response, biochemical (AID 679)).
Sequence of Coagulation factor XI (P03951 19-387 limits assumed): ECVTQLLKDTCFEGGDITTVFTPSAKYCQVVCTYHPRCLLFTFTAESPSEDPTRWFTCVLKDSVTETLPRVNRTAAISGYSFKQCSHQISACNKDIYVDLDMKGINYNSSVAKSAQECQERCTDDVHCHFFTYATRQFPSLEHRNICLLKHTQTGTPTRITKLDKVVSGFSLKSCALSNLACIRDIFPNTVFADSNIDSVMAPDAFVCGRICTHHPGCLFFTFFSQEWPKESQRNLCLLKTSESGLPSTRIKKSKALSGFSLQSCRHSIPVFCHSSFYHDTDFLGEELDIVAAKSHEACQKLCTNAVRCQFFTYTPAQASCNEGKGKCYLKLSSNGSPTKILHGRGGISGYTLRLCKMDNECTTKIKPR
Sequence of Coagulation factor XI (P03951 388-625 limits assumed): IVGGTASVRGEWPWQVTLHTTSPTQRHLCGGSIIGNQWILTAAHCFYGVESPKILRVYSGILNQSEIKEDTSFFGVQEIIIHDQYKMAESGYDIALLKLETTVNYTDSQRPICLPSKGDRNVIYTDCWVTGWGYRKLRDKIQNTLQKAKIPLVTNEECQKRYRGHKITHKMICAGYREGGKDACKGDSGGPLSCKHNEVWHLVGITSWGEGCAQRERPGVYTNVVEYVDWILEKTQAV
Work on `Cc1cc(=O)[nH]c(-n2[nH]c(C)cc2=O)n1` [6-methyl-2-(3-methyl-5-oxo-2,5-dihydro-1H-pyrazol-1-yl)-4(3H)-pyrimidinone] yielded an IC50 greater than 50 µM. `COc1ccc2c(=O)cc(-c3ccccc3)n(C)c2c1` [7-methoxy-1-methyl-2-phenyl-4-quinolinone] showed an IC50 greater than 50 µM. Compound `CCOc1cccc2cc(C(N)=O)/c(=N/Cc3ccccc3)oc12` [8-ethoxy-2-(phenylmethyl)imino-chromene-3-carboxamide] has an IC50 greater than 50 µM. `CCc1ccc(CC2SC(=C(C#N)C(C)=O)NC2=O)cc1` (centres undefined) [(2E)-2-[5-[(4-ethylphenyl)methyl]-4-oxo-2-thiazolidinylidene]-3-oxobutanenitrile] showed an IC50 greater than 50 µM. Work on `CC(C)c1nc2ccc(NC(=O)C3CCCCC3)cc2[nH]1` [Cyclohexanecarboxylic acid (2-isopropyl-1H-benzoimidazol-5-yl)-amide] yielded an IC50 greater than 50 µM. `O=S(=O)(Cc1ccccc1)N1CCC(c2nc(-c3cccs3)no2)CC1` [MLS000027341] showed an IC50 greater than 50 µM. Work on `Cc1c(O)ccc(C(=O)CN2C(=O)c3ccccc3C2=O)c1O` [MLS000050535] yielded an IC50 greater than 50 µM. `CCOC(=O)c1c(C)n(Cc2ccccc2)c2ccc(OCC(O)Cn3nc(C)cc3C)cc12` (centres undefined) [MLS000121399] was tested, and the IC50 was greater than 50 µM. `COc1cccc(C(=O)N(Cc2ccccc2)Cc2cc3cc4c(cc3nc2O)OCCO4)c1` [MLS000123157] was tested, and the IC50 was 10.4 µM. With `CCOc1ccc(S(=O)(=O)NCc2ccc(OC)cc2)c2cccnc12` [MLS000521584] the IC50 was greater than 50 µM. With `O=C(Oc1ccc2c(=O)c(Cl)coc2c1)c1cccnc1` [MLS000523505] the IC50 was greater than 50 µM. `Cc1ccc(C(=O)n2nnc3ccccc32)cc1` [MLS000527467] showed an IC50 of 2.39 µM. With `CCC1(c2ccccc2)C(=O)N(C)C(=O)N(C)C1=O` [MLS000532164] the IC50 was greater than 50 µM. Work on `CC1=C(C(=O)OC(C)C)C(c2coc3ccccc3c2=O)C2C(=O)CCCC2=N1` (centres undefined) [MLS000533594] yielded an IC50 greater than 50 µM. For `C=CCn1c(=O)c2c(nc(Br)n2Cc2ccccc2Cl)n(C)c1=O` [MLS000555959], the IC50 was 0.638 µM. Work on `Cc1c(NC(=O)c2cc3ccccc3o2)c(=O)n(-c2ccccc2)n1C` [MLS000556522] yielded an IC50 greater than 50 µM. `CCOc1cc(S(=O)(=O)N(Cc2ccccc2)Cc2ccccc2)c(OCC)cc1-n1cnnn1` [N,N-Dibenzyl-2,5-diethoxy-4-tetrazol-1-yl-benzenesulfonamide] showed an IC50 greater than 50 µM. With `Cn1nnnc1SCC(=O)N(C1CCCCC1)C1CCCCC1` [N,N-dicyclohexyl-2-[(1-methyl-5-tetrazolyl)thio]acetamide] the IC50 was greater than 50 µM. `CCc1ccc(NC(=O)Cn2nc(C(F)(F)F)c3c2CCC3)cc1` [N-(4-Ethyl-phenyl)-2-(3-trifluoromethyl-5,6-dihydro-4H-cyclopentapyrazol-1-yl)-acetamide] showed an IC50 greater than 50 µM. With `Cc1ccc(NS(=O)(=O)c2ccc(OCC(=O)N3CCOCC3)cc2)cc1` [N-(4-methylphenyl)-4-(2-morpholin-4-yl-2-oxidanylidene-ethoxy)benzenesulfonamide] the IC50 was greater than 50 µM. `CCC1CC2CC(NC(C)=O)C1C2` (centres undefined) [N-(5-ethyl-3-bicyclo[2.2.1]heptanyl)ethanamide] gave an IC50 of 0.588 µM. In the case of `Cc1ccc(N(C(=O)c2ccccn2)C2(C(=O)NC3CCCC3)CCCCC2)cc1` [N-[1-(cyclopentylcarbamoyl)cyclohexyl]-N-(4-methylphenyl)pyridine-2-carboxamide], the IC50 is reported as greater than 50 µM. In the case of `Cc1ccc(-c2csc(N3CCC(NS(=O)(=O)c4ccc5c(c4)OCCO5)CC3)n2)cc1` [N-[1-[4-(4-methylphenyl)-1,3-thiazol-2-yl]piperidin-4-yl]-2,3-dihydro-1,4-benzodioxine-6-sulfonamide], the IC50 is reported as greater than 50 µM. Work on `COc1ccc(OCC(=O)Nc2cc(-c3nn(C)c(=O)c4ccccc34)ccc2OC)cc1` [N-[2-Methoxy-5-(3-methyl-4-oxo-3,4-dihydro-phthalazin-1-yl)-phenyl]-2-(4-methoxy-phenoxy)-acetamide] yielded an IC50 greater than 50 µM. `CCOC(=O)N=S(=O)(Oc1ccc([N+](=O)[O-])cc1)c1ccccc1` (centres undefined) [N-[(4-nitrophenoxy)-oxo-phenyl--sulfanylidene]carbamic acid ethyl ester] showed an IC50 greater than 50 µM. `CN(CCOc1ccccc1)c1ccc(S(=O)(=O)N2CCCCC2)cn1` [N-methyl-N-(2-phenoxyethyl)-5-piperidin-1-ylsulfonylpyridin-2-amine] gave an IC50 greater than 50 µM. `Cc1cccc(NC(=O)c2snc3c(=O)[nH]cnc23)c1` [SMR000000702] gave an IC50 greater than 50 µM. `CCCN(CCC)C(C(=O)Nc1cccc(OC)c1)c1ccccc1` (centres undefined) [SMR000064514] gave an IC50 greater than 50 µM. Compound `CCCC(=O)n1nc(-c2ccccc2)nc1SC` [SMR000113998] has an IC50 greater than 50 µM. For `O=C(Oc1cccc(-n2cnnn2)c1)c1ccco1` [SMR000117840], the IC50 was 4.06 µM. `O=C(c1cccc2ccccc12)n1nnc2ccccc21` [SMR000118701] showed an IC50 greater than 50 µM. In the case of `COC(=O)C(Cc1c[nH]c2ccccc12)NC(C)=O` (centres undefined) [SMR000121078], the IC50 is reported as 6.69 µM. For `COCC/N=C1\Sc2nc3c(C)cccc3cc2CN1Cc1ccco1` [SMR000122349], the IC50 was 0.745 µM. With `COc1cc(C=c2sc3n(c2=O)CCCN=3)ccc1O` [SMR000126740] the IC50 was greater than 50 µM. With `O=C(c1ccc(F)cc1)N1CCN(C(=O)c2cccnc2)CC1` [SMR000140978] the IC50 was greater than 50 µM. Work on `COC(=O)c1sc(NC(=O)CC(C)C)c(C(=O)OC)c1C` [SMR000141040] yielded an IC50 greater than 50 µM. In the case of `Cc1cc(C)n2nc(C(=O)Nc3ccc4c(c3)OCO4)cc2n1` [SMR000144727], the IC50 is reported as greater than 50 µM. With `CCc1c(O)nc(SCC(=O)NC(C)(C)C)n(-c2ccccc2)c1=O` [SMR000147407] the IC50 was greater than 50 µM. `N#Cc1c(N)nc2c(c1N)=C(N)SC1=NC(=O)CC(c3ccccc3Cl)C=21` (centres undefined) [SMR000147835] showed an IC50 greater than 50 µM. In the case of `CNC(=O)COC(=O)c1[nH]c(C)c(C(C)=O)c1C` [SMR000152883], the IC50 is reported as greater than 50 µM. With `COc1ccccc1-n1cnnc1SCC(=O)Nc1nc(C)c(Cl)cc1Cl` [SMR000153344] the IC50 was 10.2 µM. `CCn1c(SCC(=O)c2[nH]c(C)c(C(C)=O)c2C)nnc1-c1ccccc1` [SMR000153346] showed an IC50 of 7.44 µM. In the case of `Cc1cnc(C(=O)OCC(=O)NCc2ccccc2)cn1` [[2-(benzylamino)-2-oxoethyl] 5-methylpyrazine-2-carboxylate], the IC50 is reported as greater than 50 µM. `Cc1cc(NC(=O)COC(=O)c2c(C)nn(Cc3ccccc3)c2C)no1` [[2-[(5-methyl-1,2-oxazol-3-yl)amino]-2-oxoethyl] 1-benzyl-3,5-dimethylpyrazole-4-carboxylate] was tested, and the IC50 was greater than 50 µM. `COC(=O)CSc1nnc(C)n1-c1cccc(OC)c1` [[4-(3-Methoxy-phenyl)-5-methyl-4H-[1,2,4]triazol-3-ylsulfanyl]-acetic acid methyl ester] was tested, and the IC50 was 2.36 µM. Work on `CCOC(=O)c1cc2c(ccn2C)n1CC(=O)N1CCC(C)CC1` [ethyl 1-methyl-4-[2-(4-methylpiperidin-1-yl)-2-oxoethyl]pyrrolo[3,2-b]pyrrole-5-carboxylate] yielded an IC50 of 0.744 µM. With `CCOC(=O)c1c(C)nc2c(c1C)c(=O)oc1ccccc12` [ethyl 2,4-dimethyl-5-oxochromeno[4,3-b]pyridine-3-carboxylate] the IC50 was greater than 50 µM. `COC(=O)c1ccc(NC(=O)Cc2c(O)n(-c3ccc(C)cc3)c(=O)n2CC(C)C)cc1` [methyl 4-[2-[1-(4-methylphenyl)-3-(2-methylpropyl)-2,5-bis(oxidanylidene)imidazolidin-4-yl]ethanoylamino]benzoate] was tested, and the IC50 was greater than 50 µM. `COC(=O)c1[nH]c2ccc(Br)cc2c1NC(=O)CN1CCCc2ccccc21` [methyl 5-bromanyl-3-[2-(3,4-dihydro-2H-quinolin-1-yl)ethanoylamino]-1H-indole-2-carboxylate] gave an IC50 greater than 50 µM.
